Measurements as given in patent US5462941A, “3,6-disubstituted pyradazine derivatives” (Mitsubishi Chemical Corporation, priority 1991, dated 1995).

Tests used:
[1] = tested on: Myocardial Infarction of a Rat; test: Effect on myocardial infarction of a rat induced by ligation of the left coronary artery; format: in vivo, rat (male SD); settings: oral, 60 minutes before ligation
Protocol: Effects of 3,6-Disubstituted Pyridazine Derivatives on the Myocardial Infarction of a Rat Induced by the Ligation of the Left Coronary Artery
A rat group consisting of 8 male SD rats each weighing 200 to 250 g was tested. Myocardial infarction was produced in accordance with a method of Selye et al. That is, each rat was fixed on an operating boar on its back, and an about 1.5 cm incision had been made through the skin along the left sternal border under weak etherization. The pericardium was broken to exteriorize the heart, and the left coronary artery was ligated at a position of 1 to 2 mm apart from the origin thereof with black blade 4-O silk suture (produced by Hama Ika Kogyo). Thereafter, the heart was restored to its original position and the chest was sutured. The air in the throacic cavity was discharged by pressing both side breast portions. After the resumption of respiration, the ST elevation in the standard limb lead II by an electrocardiograph (Model ECG-6601, produced by Nihon Koden Co.,). 24 hours after the ligation, blood was collected from the aortas at the abdomen. A fatal amount of blood was then drawn from each rat. The heart was taken out, and a tissue slice (about 2 mm thick) having an annular cross section was cut from the central portion of the heart. The tissue slice was incubated in 20 ml of 1% TTC (tryphenyl tetrazolium chloride, produced by Wako Pure Chemical Industries Limited) dissolved in 0.09M of phosphoric acid buffer (pH 8.6) at 37° C. for 20 minutes while shielding light. The tissue slice was photographed by a stereoscopic microscope to produce a color slide. The image of the tissue slice was projected on a wall surface from the color slide. The cut surface, the infarcted portion (portion not dyed with TTC) and the non-infarcted portion (portion dyed with TTC) were traced on a sheet, and the area of the infarcted portion in the whole cross section was calculated. The medicine was suspended in an aqueous 1% tragacanth solution and orally administered to each rat 60 minutes before the ligation of the left coronary artery.
The myocardial infarction inhibitory ratio was calculated from the following formula: [formula] A: Infarction degree in the group (controlled group) to which only a solution of 1% tragacanth was administered
B: Infarction degree in the group to which the tragacanth solution containing a medicine was administered

[2] = tested on: Platelet Agglutination of Rats; test: Inhibitory effect on collagen-induced platelet agglutination of rats in vitro (platelet rich plasma); format: cell-based; settings: rat platelet rich plasma, read-out: in vitro Inhibitory ratio (platelet agglutination); for inhibition at 0.3 µM: 3 × 10^-7 M; for inhibition at 0.1 µM: 10^-7 M; for inhibition at 1 µM: 10^-6 M
Protocol: Inhibitory Effects of 3,6-Disubstituted Pyridazine Derivatives on Platelet Agglutination of Rats […]
Arterial blood of a rat was centrifuged to obtain platelet rich plasma. […] of a medicinal solution was added to 250 μl of the platelet rich plasma, and the mixture was incubated for 2 minutes. Thereafter, 3 μg of collagen (produced by Hormon-Chemie) was added to the mixture as a platelet agglutination inducer, and changes in the platelet agglutination were observed and recorded by a 2-channel platelet agglutination degree measuring instrument (Model DP247E, produced by Sienco) for 10 minutes.
(§1) The platelet agglutination inhibitory ratio was calculated from the following formula:
Inhibitory ratio=(Tc-Ts)/Tc×100
Tc: Agglutination degree when only a solvent was added
Ts: Agglutination degree when a medicinal solution was added

[3] = tested on: Platelet Agglutination of Rats; test: Inhibitory effect on collagen-induced platelet agglutination of rats after oral administration (ex vivo); format: in vivo, rat (male Wistar-ST); settings: 1 mg/kg p.o., blood collected one hour after; collagen 7 to 10 μg/ml; rat
Protocol: Inhibitory Effects of 3,6-Disubstituted Pyridazine Derivatives on Platelet Agglutination of Rats In Vivo (Oral Administration)
A rat group consisting of 8 male Wistar-ST rats each weighing about 250 g was tested. Each compound was suspended in aqueous 1% tragacanth solution. The thus-prepared suspension was orally administered to each rat at a dose of 4 ml/kg. One hour after, blood was collected from each carotid artery through a cannula into a plastic test tube containing 3.8% sodium citrate in amount corresponding to 1/10 of the volume of the test tube) and the mixture was stirred. Thereafter, the mixture was centrifuged at 200×g rpm for 15 minutes, and the supernatant liquid was taken as platelet rich plasma (PRP). The residue was further centrifuged at 2000×g rpm for 15 minutes, and the supernatant liquid was collected as platelet poor plasma (PPP) and used for measurement of the platelet agglutinating ability. The platelet agglutinating ability was measured by a 2-channel platelet agglutination degree measuring instrument (Model DP247E, produced by Sienco), and recorded by a 2-pen recorder.
Collagen (produced by Hormon-Chemie) having a concentration of 7 to 10 μg/ml was used as a platelet agglutination inducer.
as §1
Inhibitory ratio=(A-B)/A×100 (%)
A: Agglutination degree in the group (controlled group) to which only a solution of 1% tragacanth was administered
B: Agglutination degree in the group to which the tragacanth solution containing a compound was administered

Compound | inhibition at 0.3 µM [2] [%] | inhibition at 0.1 µM [2] [%] | inhibition at 1 µM [2] [%] | also measured
CC(=O)Oc1ccccc1C(=O)O [Aspirin, reference compound] |  |  |  | percentage of inhibition (myocardial infarction) ([1]; 100 mg/kg): 10.7 percentage
C[C@@H](Nc1nnc(C2CCCCC2)c2ccccc12)c1ccccc1 [Example 1, (R)-1-(α-phenylethylamino)-4-cyclohexylphthalazine] | 97.1 | 89.2 |  | 
CCC(Nc1nnc(C2CCCCC2)c2ccccc12)c1ccccc1 (centres unmarked) [Example 2] | 96 | 56 |  | 
c1ccc2c(C3CCCCC3)nnc(NC3CCCCC3)c2c1 [Example 3] | 18.4 |  | 100 | 
CC1(C)CC(Nc2nnc(C3CCCCC3)c3ccccc23)CC(C)(C)C1 [Example 5] |  |  | 51.8 | 
C[C@@H](Nc1nnc(-c2ccsc2)c2ccccc12)c1ccccc1 [Example 39, (R)-1-(α-phenylethylamino)-4-(3-thienyl) phthalazine] |  | 94.9 |  | 
Cc1csc(-c2nnc(N[C@H](C)c3ccccc3)c3ccccc23)c1 [Example 42, (R)-1-(α-phenylethylamino)-4-(4-methyl-2-thienyl)phthalazine] |  | 96.3 |  | 
C[C@@H](Nc1nnc(-c2ccco2)c2ccccc12)C1CCCCC1 [Example 45, (R)-1-(α-cyclohexylethylamino)-4-(2-furyl)phthalazine] |  | 98.6 |  | 
c1coc(-c2nnc(-n3ccnc3)c3ccccc23)c1 [Example 46, 1-(1-imidazolyl)-4-(2-furyl)phthalazine] | 40.6 |  | 66.5 | 
C[C@@H](Nc1nnc(-c2ccccc2)c2ccccc12)C1CCCCC1 [Example 60, (R)-1-(1-cyclohexylethylamino)-4-phenylphthalazine] |  | 94.3 |  | ex vivo Inhibitory ratio (platelet agglutination) [3]: 51.3%; percentage of inhibition (myocardial infarction) ([1]; 1 mg/kg): 68.5 percentage; percentage of inhibition (myocardial infarction) ([1]; 3 mg/kg): 82.2 percentage
C[C@H](Nc1nnc(-c2ccccc2)c2ccccc12)C1CCCCC1 [Example 61] | 94.4 | 30.2 |  | 
C[C@@H](Nc1nnc(-c2cccs2)c2sccc12)c1ccccc1 [Example 69, (R)-4-(1-phenylethylamino)-7-(2-thienyl) thieno[2 3-d]pyridazine] | 95.2 | 50.8 |  | 
C[C@@H](Nc1nnc(-c2ccccc2)c2sccc12)c1ccccc1 [Example 70] |  | 95.2 |  | 
CCC(Nc1nnc(-c2ccccc2)c2sccc12)c1ccccc1 (centres unmarked) [Example 71] | 98.6 | 30.7 |  | 
CC(Nc1nnc(-c2ccccc2)c2sccc12)c1ccccc1Cl (centres unmarked) [Example 72] | 95.3 | 5.1 |  | 
Cc1cccc(C(C)Nc2nnc(-c3ccccc3)c3sccc23)c1 (centres unmarked) [Example 73] | 95.6 | 42.8 |  | 
COc1ccccc1C(C)Nc1nnc(-c2ccccc2)c2sccc12 (centres unmarked) [Example 74] | 93.5 | 73.4 |  | 
C[C@@H](Nc1nnc(-c2ccccc2)c2sccc12)C1CCCCC1 [Example 75] |  | 94.5 |  | ex vivo Inhibitory ratio (platelet agglutination) [3]: 50.2%
Cc1ccccc1-c1nnc(N[C@H](C)c2ccccc2)c2ccsc12 [Example 79] | 6.6 |  | 94.3 | 
c1ccc(-c2nnc(NC3CCCCC3)c3ccsc23)cc1 [Example 80] |  | 100 |  | 
C[C@@H](Nc1nnc(-c2ccccc2)c2ccsc12)c1ccccc1 [Example 82] |  | 93.3 |  | ex vivo Inhibitory ratio (platelet agglutination) [3]: 37.9%
C[C@H](Nc1nnc(-c2ccccc2)c2ccsc12)c1ccccc1 [Example 83] | 94.3 |  |  | 
CCC(Nc1nnc(-c2ccccc2)c2ccsc12)c1ccccc1 (centres unmarked) [Example 84] | 24.5 |  | 61.6 | 
CCCCC(Nc1nnc(-c2ccccc2)c2ccsc12)c1ccccc1 (centres unmarked) [Example 85] |  |  | 40.7 | 
CC(Nc1nnc(-c2ccccc2)c2ccsc12)c1ccccc1Cl (centres unmarked) [Example 86] | 78.2 |  | 90.2 | 
Cc1cccc(C(C)Nc2nnc(-c3ccccc3)c3ccsc23)c1 (centres unmarked) [Example 87] |  |  | 18 | 
COc1ccccc1C(C)Nc1nnc(-c2ccccc2)c2ccsc12 (centres unmarked) [Example 89] | 49.5 |  | 95.4 | 
C[C@@H](Nc1nnc(-c2ccccc2)c2ccsc12)C1CCCCC1 [Example 90] | 94.4 | 32.7 |  | ex vivo Inhibitory ratio (platelet agglutination) [3]: 60.6%
C[C@@H](Nc1nnc(-c2ccccc2)c2occc12)C1CCCCC1 [Example 95, (R)-4-(1-cyclohexylethylamino)-7-phenyl-furano[2,3-d]pyridazine] | 100 | 94.4 |  | ex vivo Inhibitory ratio (platelet agglutination) [3]: 63.1%
Clc1ccccc1CN1CCc2sccc2C1 [Ticlopidine, reference compound] |  |  |  | percentage of inhibition (myocardial infarction) ([1]; 30 mg/kg): 10.1 percentage
